Reference: patent US20250255815A1, “NUCLEIC ACIDS ENCODING A CONSTITUTIVELY-ACTIVE CYCLIC GMP-AMP SYNTHASE AND IMMUNOGENIC DELIVERY VEHICLES FOR SAME” (Corner Therapeutics, Inc., priority 2022, published 2025)

B1: cGASΔN: constitutively-active truncated human cGAS, C-terminal domain (SEQ ID NO:1) (protein, listed as Homo sapiens)
chain: PGASKLRAVLEKLKLSRDDISTAAGMVKGVVDHLLLRLKCDSAFRGVGLLNTGSYYEHVKISAPNEFDVMFKLEVPRIQLEEYSNTRAYYFVKFKRNPKENPLSQFLEGEILSASKMLSKFRKIIKEEINDIKDTDVIMKRKRGGSPAVTLLISEKISVDITLALESKSSWPASTQEGLRIQNWLSAKVRKQLRLKPFYLVPKHAKEGNGFQEETWRLSFSHIEKEILNNHGKSKTCCENKEEKCCRKDCLKLMKYLLEQLKERFKDKKHLDKFSSYHVKTAFFHVCTQNPQDSQWDRKDLGLCFDNCVTYFLQCLRTEKLENYFIPEFNLFSSNLIDKRSKEFLTKQIEYERNNEFPVFDEF

Experiments:
human PBMCs [1] = assay: IFNγ and TNFα secretion by human PBMCs (ELISA); assay type: cell-based; settings: two days post-hyperactivation
Protocol: Cell Culture and Stimulation. Immediately following isolation, PBMCs were plated in RPMI medium containing 10% FBS, 50 units/mL penicillin, […] streptomycin, 2 mM L-glutamine, 1 mM sodium pyruvate, and […] beta-mercaptoethanol (R10 media). Cells were plated at 1×10^5 (canine cells) or 1×10^6 (human cells) per well in 96-well flat bottom tissue culture plates. Lyophilized Vaccigrade R848 (Invivogen) was reconstituted and diluted according to manufacturer's recommendations and added to cells at a final concentration of 1 μg/mL. Immediately following, 22:0 LYSO PC was added to cells at a final concentration of 82.5 μM. […]
(§1) Endpoint Analyses. […] Half of the media volume in the wells was collected for cytokine quantification by Enzyme-Linked Immunosorbent Assay (ELISA) or Lumit™ Bioluminescent assay, while the remaining media and cells were used to quantify cell viability by assessing metabolic activity.
(§2) Quantification of Cytokine Secretion. IL-1β secretion from human PBMCs was assessed using one of the following kits: ELISA MAX Deluxe Set Human IL-1β kit (Biolegend), Invitrogen Human IL-1β kit, or the Lumit™ Human IL-1β Immunoassay (Promega). IFNγ secretion from human PBMCs was assessed using the ELISA MAX Deluxe Set Human IFNγ (Biolegend) and TNFα secretion from human PBMCs was assessed using the Human TNFα Uncoated ELISA kit (Invitrogen). […]

canine PBMCs = assay: IL-1β secretion by canine PBMCs (ELISA); assay type: cell-based; settings: two days in culture, R848 1 μg/mL, 22:0 LYSO PC 82.5 μM
Protocol: (§3) Isolation of PBMCs from Whole Blood. PBMCs were isolated from whole blood using density gradient centrifugation with Ficoll-Paque PLUS (Cytivia). Whole blood was diluted 1:1 with PBS, layered on top of Ficoll-Paque PLUS and centrifuged at 1000×g for 30 minutes at room temperature. PBMCs were collected, washed twice in PBS, and incubated with Ack lysis buffer (Lonza) to remove any remaining red blood cells.
(§4) Cell Culture and Stimulation. Immediately following isolation, PBMCs were plated in RPMI medium containing 10% FBS, 50 units/mL penicillin, […] streptomycin, 2 mM L-glutamine, 1 mM sodium pyruvate, and […] beta-mercaptoethanol (R10 media). […]
as §1, §2

human PBMCs [2] = assay: IL-1β secretion by human PBMCs (ELISA or Lumit); assay type: cell-based; settings: two days in culture
Protocol: as §3, §4, §1, §2

[3] = tested on: human leukemia monocytic cell line; settings: cited from earlier work

Molecule | IFNγ secretion, fold change per donor relative to R848 alone (human PBMCs [1]) | IL-1β secretion (canine PBMCs) | IL-1β secretion (human PBMCs [2]) | expression of interferon and interferon-stimulated genes [3]
Nc1nc2c(ncn2[C@@H]2O[C@@H]3COP(=O)(O)O[C@H]4[C@@H](O)[C@H](n5cnc6c(N)ncnc65)O[C@@H]4COP(=O)(O)O[C@@H]2[C@@H]3O)c(=O)[nH]1 [2′3′cGAMP, 2′3′cyclic GMP-AMP, reference compound] | neither GM-CSF nor 2′3′cGAMP elicited a substantial fold change in IFNγ secretion over R848 alone | neither GM-CSF nor 2′3′cGAMP induced significant IL-1β secretion |  | 
GM-CSF: human GM-CSF (Peprotech), innate agonist | neither GM-CSF nor 2′3′cGAMP elicited a substantial fold change in IFNγ secretion over R848 alone | neither GM-CSF nor 2′3′cGAMP induced significant IL-1β secretion | did not induce levels of IL-1β secretion from human PBMCs significantly above background levels | 
B1 |  |  |  | higher levels of expression of interferon and interferon-stimulated genes
